From patent publication US6780853B1, “Neuroactive steroids of the androstane and pregnane series” (priority 1995, dated 2004)
Marks after values point to notes of the source that are not given here.

Experiments:
punished responding = assay: Geller-Seifter conflict test; type: in vivo, Sprague-Dawley rats
Source text: This animal model of human anxiety utilizes a conditioned state of conflict in rats to ascertain the anxiolytic properties of drugs. Rats are conditioned to bar press for positive reinforcement under two schedules of behavior (Geller and Seifter, Psychopharmacologia 1:482-492 (1960)). The first includes bar pressing under a […] schedule without punishment. The second component is a fixed ratio schedule with each bar press resulting in a positive reinforcement and a punishment The punished component produces a state of conflict within the animal. […] An anxiolytic response would increase the punished responding without affecting the unpunished responding.
Male albino Sprague-Dawley rats (Charles River Labs, Wilmington, Mass.) weighing 250-300 g were used for conflict experiments and were kept on a restricted diet of Purina Lab Chow food pellets with water available at all times to maintain body weight at 85% of their free-feeding young adult levels. Rats were housed individually under a 12-hour light dark cycle with lights on from 0700-1900.
The ant-anxiety (punishment-lessening) and response depressant effects of compounds of the present invention were measured in rats by the conflict test of Geller and Seifter. In this 63-min test hungry rats perform a lever-press response to obtain a sweetened milk reward. The reinforcement schedule consists of punishment and nonpunishment components, alternating approximately every 15 min. Rats were trained in test chambers (Coulbourn instruments) with a lever mounted in one wall, a small dipper that delivered the 0.1-mL milk reward (1 part Eagle condensed milk:2 parts water), and a metal grid floor through which the foot-shock punishment was administered. A DEC PDP 11/73 minicomputer running SKED (State Systems) was used for programming and recording.
Rats initially learned to respond on a continuous reinforcement schedule and progressed rapidly to 30-sec, 1-min, and 2-min variable interval (VI) schedules. On the continuous reinforcement schedule, rats received milk reward following every lever press; on the VI schedules, milk rewards were available at infrequent and variable intervals, eventually at an average of once every 2 min. Four 3-min “conflict” periods were then introduced on the unpunished VI baseline; the first started after 3 min of VI performance and the others were alternated between 12-min periods of VI responding. During conflict periods, which were signalled by the presentation of a light and a tone, the continuous reinforcement schedule was again in force and each lever press delivered both a milk reward and a brief […] foot-shock punishment. […]

[1] = target: GABA receptor complex (GRC); assay: [35S]TBPS binding in rat cerebral cortex P2 homogenate
Outline: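 Male Sprague-Dawley rat cortical P2 homogenate (0.5 mg protein) incubated with 2 nM [35S]TBPS in 50 mM Na/K phosphate pH 7.4, 200 mM NaCl, with GABA plus (+)bicuculline, 90 min at 25 °C. Filter-bound radioactivity counted; non-specific binding with […]; IC50 and maximal inhibition by nonlinear regression.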

[2] = system: metrazol induced convulsions; assay: Antimetrazol activity in mice; type: in vivo; conditions: 10 mg/kg, 50% hpbcd
Outline: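 Mice dosed with test compounds at various doses 10 minutes before metrazol (85 mg/kg) injection. Each animal observed for 30 minutes, recording time to onset of myoclonus (forelimb clonic activity).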

[3] = system: maximal electroshock tonic seizure; assay: Maximal electroshock test; type: in vivo, mice; conditions: 20 mg/kg, i.p., 10 min, 50% hpbcd
Source text: The anticonvulsant tests are similar to that described above.

[4] = system: time spent on the open-arms; assay: Elevated plus-maze test; type: in vivo, N.I.H. Swiss-Webster mice; conditions: IP, 50% hpbcd, 10 mg/kg
loss-of-righting reflex = assay: Anesthetic activity, loss-of-righting reflex; type: in vivo, mice; conditions: iv, 50% hpbcd, 10 mg/kg
Protocol: The compounds of and used in the invention can also be used for anesthetic indications at high doses. However, the preferred route of administration to induce anesthesia is intravenous (i.v.) administration. In animals, a drug's anesthetic properties is measured by the drug's ability to produce a loss-of-righting reflex. The loss-of-righting reflex is defined as the inability of an animal to right itself within 30 seconds when placed on its back. Mice were administered drug i.v. in the lateral tail vein. Following administration, mice were placed on their backs and observed for loss-of-righting reflex.

Progesterone Receptors = assay: Inhibition of 3H-Progesterone Binding to the Bovine Uteral Progesterone Receptors; conditions: competitor 10^−6M; 3H-progesterone 0.15 nM
[5] = target: T1, Mineralocorticoid Receptors (Rattus norvegicus, UniProt P22199); assay: Inhibition of 3H-Aldosterone Binding to Hippocampal Mineralocorticoid Receptors; conditions: competitor 10^−6M; 3 nM 3H-aldosterone, RU28362 0.5 μM
T1 construct: To isolate the mineralocorticoid receptor, brain cytosol fractions were prepared; from tissue; host or cells: brain (hippocampal) cytosol of adrenalectomized rats
T1 sequence (P22199 1-981): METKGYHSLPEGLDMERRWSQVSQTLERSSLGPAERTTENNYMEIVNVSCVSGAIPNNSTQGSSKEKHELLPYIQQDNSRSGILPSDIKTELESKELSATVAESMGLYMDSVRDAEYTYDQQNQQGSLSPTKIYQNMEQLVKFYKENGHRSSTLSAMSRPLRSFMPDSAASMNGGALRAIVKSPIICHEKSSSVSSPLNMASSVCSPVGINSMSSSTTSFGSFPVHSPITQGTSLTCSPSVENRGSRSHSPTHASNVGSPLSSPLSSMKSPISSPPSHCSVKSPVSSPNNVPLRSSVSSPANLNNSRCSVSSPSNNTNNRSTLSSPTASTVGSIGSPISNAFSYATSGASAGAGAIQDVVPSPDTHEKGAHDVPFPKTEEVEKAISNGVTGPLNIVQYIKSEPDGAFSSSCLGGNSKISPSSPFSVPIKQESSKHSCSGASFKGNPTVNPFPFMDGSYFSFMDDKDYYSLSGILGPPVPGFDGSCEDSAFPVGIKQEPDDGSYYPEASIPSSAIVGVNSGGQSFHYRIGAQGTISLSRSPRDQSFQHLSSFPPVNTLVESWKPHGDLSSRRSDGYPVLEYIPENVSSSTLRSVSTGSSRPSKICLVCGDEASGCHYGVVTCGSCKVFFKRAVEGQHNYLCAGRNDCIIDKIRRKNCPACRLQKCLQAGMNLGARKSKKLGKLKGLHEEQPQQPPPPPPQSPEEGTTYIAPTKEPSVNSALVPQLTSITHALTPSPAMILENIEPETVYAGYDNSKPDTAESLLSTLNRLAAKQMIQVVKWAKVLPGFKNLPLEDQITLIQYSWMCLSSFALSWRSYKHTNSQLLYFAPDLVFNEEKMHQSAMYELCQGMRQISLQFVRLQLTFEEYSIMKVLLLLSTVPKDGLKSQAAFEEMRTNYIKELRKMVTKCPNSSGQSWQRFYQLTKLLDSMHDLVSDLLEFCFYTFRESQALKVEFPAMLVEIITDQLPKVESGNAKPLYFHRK
Protocol: (§1) Various hormonal activities of representative neuroactive steroids were further studied through testing their potential estrogenic, mineralocorticoid and glucocorticoid activities. These activities were analyzed by monitoring the ability of the compounds to inhibit binding of the steroid hormones to their respective hormone receptors.
In Table 4, rats were adrenalectornized 3 days prior to sacrifice.

Glucocorticoid Receptors = target: T2, Glucocorticoid Receptors (Rattus norvegicus, UniProt P06536); assay: Inhibition of 3H-Dexamethasone Binding to Glucocorticoid Receptors; conditions: competitor 10^−6M; 3 nM 3H-dexamethasone
T2 construct: from tissue; host or cells: rat brain cytosol
T2 sequence (P06536 1-795): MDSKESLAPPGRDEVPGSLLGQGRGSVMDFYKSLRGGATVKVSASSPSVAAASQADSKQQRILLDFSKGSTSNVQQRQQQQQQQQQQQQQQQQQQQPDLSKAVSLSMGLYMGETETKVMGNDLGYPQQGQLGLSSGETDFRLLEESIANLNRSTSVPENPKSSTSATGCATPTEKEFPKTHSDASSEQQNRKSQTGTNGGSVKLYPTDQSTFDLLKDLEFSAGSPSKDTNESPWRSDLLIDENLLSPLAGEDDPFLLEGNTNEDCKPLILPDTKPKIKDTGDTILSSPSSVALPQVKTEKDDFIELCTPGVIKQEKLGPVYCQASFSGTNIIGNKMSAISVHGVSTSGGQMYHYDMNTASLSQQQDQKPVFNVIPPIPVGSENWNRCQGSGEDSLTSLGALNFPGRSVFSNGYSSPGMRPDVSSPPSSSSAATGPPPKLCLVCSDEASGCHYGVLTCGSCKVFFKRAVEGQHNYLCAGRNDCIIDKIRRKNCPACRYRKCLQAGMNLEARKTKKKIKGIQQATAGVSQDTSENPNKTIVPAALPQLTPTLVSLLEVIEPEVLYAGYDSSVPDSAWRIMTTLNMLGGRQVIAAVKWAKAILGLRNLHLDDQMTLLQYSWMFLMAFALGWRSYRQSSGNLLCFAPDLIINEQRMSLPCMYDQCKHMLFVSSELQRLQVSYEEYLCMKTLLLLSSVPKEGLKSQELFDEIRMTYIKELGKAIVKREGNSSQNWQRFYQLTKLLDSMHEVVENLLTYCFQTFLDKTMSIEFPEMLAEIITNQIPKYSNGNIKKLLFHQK
Protocol: as §1
For Table 4, brain cytosol fractions were prepared as for Table 3, and the compounds were incubated with 3 nM of ^3H-dexamethasone (the specific ligand for the glucocorticoid receptor).

Estrogen Receptors = target: T3, Estrogen Receptors (Bos taurus, UniProt P49884); assay: Inhibition of 3H-Estradiol Binding to Bovine Uteral Estrogen Receptors; conditions: competitor 10^−6M; 3H-estradiol 0.15 nM
T3 construct: from tissue; host or cells: bovine uterus cytosol
T3 sequence (P49884 1-596): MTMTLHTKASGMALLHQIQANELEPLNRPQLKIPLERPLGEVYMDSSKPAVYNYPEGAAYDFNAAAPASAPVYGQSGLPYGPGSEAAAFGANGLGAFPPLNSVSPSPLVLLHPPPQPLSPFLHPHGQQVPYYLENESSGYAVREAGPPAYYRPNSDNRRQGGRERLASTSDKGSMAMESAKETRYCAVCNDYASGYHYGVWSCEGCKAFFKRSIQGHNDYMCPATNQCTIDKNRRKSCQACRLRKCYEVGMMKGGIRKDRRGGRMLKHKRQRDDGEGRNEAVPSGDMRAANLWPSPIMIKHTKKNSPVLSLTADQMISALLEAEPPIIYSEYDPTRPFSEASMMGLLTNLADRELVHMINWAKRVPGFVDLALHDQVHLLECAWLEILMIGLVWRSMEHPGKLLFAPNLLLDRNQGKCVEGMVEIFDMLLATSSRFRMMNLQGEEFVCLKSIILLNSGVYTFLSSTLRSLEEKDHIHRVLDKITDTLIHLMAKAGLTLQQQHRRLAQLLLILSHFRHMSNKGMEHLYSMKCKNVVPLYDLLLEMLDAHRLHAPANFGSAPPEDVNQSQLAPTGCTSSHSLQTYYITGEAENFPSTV
Protocol: as §1

[6] = data from Swinyard & Woodhead 1982; cited from earlier work

## CCOC[C@@]1(O)CC[C@@]2(C)[C@@H](CC[C@@H]3[C@@H]2CC[C@]2(C)[C@@H](C(C)=O)CC[C@@H]32)C1 [3α-Hydroxy-3β-ethoxymethyl-5α-pregnan-20-one]
Punished responding; IP, 50% hpbcd, 40 mg/kg
  Geller/Seifter (% or control): 3743 % or control

## COC[C@@]1(O)CC[C@@]2(C)[C@@H](CC[C@@H]3[C@@H]2CC[C@]2(C)[C@@H](C(C)=O)CC[C@@H]32)C1 [3α-Hydroxy-3β-methoxymethyl-5α-pregnan-20-one]
Punished responding; IP, 50% hpbcd, 10 mg/kg
  Geller/Seifter (% or control): 958 % or control

## C#C[C@@]1(O)CC[C@@]2(C)[C@H](CC[C@@H]3[C@@H]2CC[C@]2(C)[C@@H](OC)CC[C@@H]32)C1 [3β-ethynyl-3α-hydroxy-17β-methoxy-5β-androstane]
[1]; concentration to inhibit 50% of control [35S]TBPS binding, 2 nM [35S]TBPS
  IC50: 49 nM
[1]; maximum inhibition of [35S]TBPS binding
  IMAX (maximum inhibition): 101%
[2]; i.p., 10 min
  PTZ % Protected: 50^c %
[2]; IP, 10 min before metrazol 85 mg/kg
  % Protected: 50%
[3]
  MES % Protected: 31.2^b %
[4]
  Plus-Maze (% Control), time spent on the open-arms: 123 % Control
loss-of-righting reflex
  Loss-of-Righting Reflex (%): 50%

## CC(C)(O)[C@H]1CC[C@H]2[C@@H]3CC[C@H]4C[C@H](O)CC[C@]4(C)[C@H]3CC[C@]12C [5α-pregnan-20-dimethyl-3α,20-diol, 5α-pregnan-20-dimethyl-3α,20-diol]
Progesterone Receptors
  % of Inhibition: 0%
[5]
  % of Inhibition: 0%
Glucocorticoid Receptors
  % of Inhibition: 2.6%
Estrogen Receptors
  % of Inhibition: 0%

## C[C@]12CC[C@@H](O)C[C@H]1CC[C@@H]1[C@@H]2CC[C@]2(C)[C@@H](C(=O)CO)CC[C@@H]12 [5β-pregnan-3α,21-diol-20-one, 5β-pregnan-3α,21-diol-20-one]
Progesterone Receptors
  % of Inhibition: 6%
[5]
  % of Inhibition: 13.8%
Glucocorticoid Receptors
  % of Inhibition: 8.2%
Estrogen Receptors
  % of Inhibition: 0%

## CC(=O)C1CCC2C3CCC4CC(O)(C(F)(F)F)CCC4(C)C3C(N(C)C)CC12C (stereo not drawn) [11α-N,N-Dimethylamino-3α-hydroxy-3β-trifluoromethyl-5β-pregnan-20-one]
Punished responding; IP, citrate, 20 mg/kg
  Geller/Seifter (% or control): 145 % or control

## CCC1(c2ccccc2)C(=O)NC(=O)NC1=O [Phenobarbital]
[6]
  ED50 RR: 69 mg/kg

## COCC1(O)CCC2(C)C(CCC3C2CCC2(C)C(C(=O)CSS(=O)(=O)[O-])CCC32)C1.[Na+] (stereo not drawn) [Sodium S-(3α-hydroxy-3β-methoxymethyl-5α-pregnan-20-on-21-yl)thiosulfate]
Punished responding; PO, water, 32 mg/kg
  Geller/Seifter (% or control): 4487.5 % or control

## CCCC(CCC)C(=O)O [Valproate]
[6]
  ED50 RR: 514 mg/kg
